Common to all, as to assay: relative viability (nuclei count vs DMSO), 5 days (fraction); higher = more cells survive
Compound in the experiment “Selisistat + Foretinib”: C1CC(C2=C(C1)C3=C(N2)C=CC(=C3)Cl)C(=O)N [Selisistat] + COc1cc2c(Oc3ccc(NC(=O)C4(C(=O)Nc5ccc(F)cc5)CC4)cc3F)ccnc2cc1OCCCN1CCOCC1 [Foretinib] (partner 0.25 µM)
The method in brief: (§1)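 Lung cancer cell lines were seeded in 1536-well plates and dosed by pin tool the next day, with either a single drug or a fixed anchor-drug dose combined with five library-drug doses (not always all listed) spaced in √10 steps. Five days later, one step fixed the cells and stained their nuclei (final 0.05% Triton X-100, 1% formaldehyde, 1 ug/ml Hoechst), and nuclei were counted on 4× images. Relative viability is the nuclei count in treated wells divided by the count in vehicle wells, and each value is the median of duplicate plates.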

Compound in the experiment “Serdemetan + Pictilisib”: c1ccc2c(CCNc3ccc(Nc4ccncc4)cc3)c[nH]c2c1 [Serdemetan] + CS(=O)(=O)N1CCN(Cc2cc3nc(-c4cccc5[nH]ncc45)nc(N4CCOCC4)c3s2)CC1 [Pictilisib] (partner 1 µM)
A digest of the protocol:
as §1

Compound in the experiment “Serdemetan + Crizotinib”: c1ccc2c(CCNc3ccc(Nc4ccncc4)cc3)c[nH]c2c1 [Serdemetan] + C[C@@H](Oc1cc(-c2cnn(C3CCNCC3)c2)cnc1N)c1c(Cl)ccc(F)c1Cl [Crizotinib] (partner 1 µM)
The method in brief: as §1

Compound in the experiment “Serdemetan + Linsitinib”: c1ccc2c(CCNc3ccc(Nc4ccncc4)cc3)c[nH]c2c1 [Serdemetan] + C[C@]1(O)C[C@@H](c2nc(-c3ccc4ccc(-c5ccccc5)nc4c3)c3c(N)nccn32)C1 [Linsitinib] (partner 1 µM)
The method in brief: as §1

One cell line from the supplement of paper PMC10307832 can be followed below.

Regarding UMC-11, the relative viability with Selisistat + Foretinib (first compound 0.4 µM) is 0.979; with Selisistat + Foretinib (first compound 1.265 µM) it was 0.988; in the experiment with Selisistat + Foretinib (first compound 4 µM) it was 1.08; in the experiment with Selisistat + Foretinib (first compound 12.65 µM) it was 0.982; with Selisistat + Foretinib (first compound 40 µM), 1.02; with Serdemetan + Pictilisib (first compound 0.04 µM) it was 0.813. Also, the relative viability was 0.866 with Serdemetan + Pictilisib (first compound 0.1265 µM); 0.824 with Serdemetan + Pictilisib (first compound 0.4 µM); 0.47 with Serdemetan + Pictilisib (first compound 1.265 µM); 0.737 in the experiment with Serdemetan + Pictilisib (first compound 4 µM); 0.661 in the experiment with Serdemetan + Crizotinib (first compound 0.04 µM); 0.591 in the experiment with Serdemetan + Crizotinib (first compound 0.1265 µM). Further, the relative viability came out at 0.577 with Serdemetan + Crizotinib (first compound 0.4 µM); 0.482 with Serdemetan + Crizotinib (first compound 1.265 µM); 0.358 with Serdemetan + Crizotinib (first compound 4 µM); 1.03 with Serdemetan + Linsitinib (first compound 0.04 µM); 0.902 with Serdemetan + Linsitinib (first compound 0.1265 µM); 0.873 with Serdemetan + Linsitinib (first compound 0.4 µM). Moreover, the results for the relative viability with Serdemetan + Linsitinib (first compound 1.265 µM) and in the experiment with Serdemetan + Linsitinib (first compound 4 µM) were 0.701 and 0.828, respectively.
